Source: patent US20130137767A1, “Methods and Compositions for Treating Arthritis with Docosahexaenoic Acid” (DSM IP ASSETS B.V., priority 2010, published 2013)

Legend:
[1] = tested on: Collagen-Induced Arthritis (CIA); experiment: Collagen-Induced Arthritis, ethyl esters (CIA-EE, Example 1): clinical arthritis severity and incidence; type: in vivo, Male DBA/1O1aHsd mice; details: for arthritis severity score as area under the curve (AUC): days 18-45, FIG. 2; for incidence of disease (clinical arthritis score greater than 0): day 45
From the text: The anti-arthritic activity of DHA, DPAn6, DHA/DPAn6 (DHA S-oil ratio) and DHA/EPA (fish oil ratio) ethyl esters (EE) in a chronic mouse model of inflammation, Collagen-Induced Arthritis (CIA), was studied.
(§1) Male DBA/1O1aHsd mice (3.5-4 weeks of age) were randomized by weight and enrolled in the study after a three day quarantine in which animals were fed the AlN-93G diet with a modified base fat: 1 part flax seed oil (flax), 9 parts hydrogenated coconut oil (HCOC) and 21 parts high-oleic safflower oil (HO-SAFF). 15 animals were enrolled per study group, with the exception of the No Disease control that had 4 animals. Study groups consisted of:
(§2) The appropriate ethyl esters were blended into the base diet to provide approximately 2500 and 5000 mg/kg polyunsaturated fatty acid (PUFA) per day. The human equivalent doses (HED) were approximately 12 g/day and 22 g/day, respectively. The 2500 mg/kg EE diets contained the following fat blend: 1 part flax, 12 parts HCOC and 23 parts HO-SAFF. The 5000 mg/kg EE diets contained a fat blend consisting of: 1 part flax, 5 parts HCOC and 20 parts HO-SAFF. All study diets provided a total of 7% fat. Animals were fed study diets for approximately 30 days prior to the first collagen injection at day 0 and remained on the diets until study termination (day 45). Animals in the No Disease control and Dexamethasone groups were fed the diet containing OA-EE. Following a second collagen injection on day 21, arthritis severity was scored daily. Blood samples were collected at day 21 and day 45. Joints, 6 per an animal, were collected for histology and pathology on day 45.
Data was analyzed and compared by one-way ANOVA using the Bonferroni post-test to compare treatment groups to respective placebo control and to make comparisons between treatment groups (GraphPad, Prism, Version 4.0). Effects were considered to be statistically significant at p<0.05.
Arthritis severity was assessed from day 18 to 45; a score of 0 represented an animal devoid of clinical arthritis symptoms and a score of 5 represented advanced clinical arthritis. Scores from 0-5 (most severe) were assigned to each digit on the fore and hind limbs based on erythema, swelling and mobility and the mean arthritis severity per animal was determined.
The incidence of disease was reduced in animals treated with DHA-EE (FIG. 3A/B). A clinical arthritis score greater than 0 was considered diseased. The incidence of disease at day 45 was 13% in animals treated with 2500 mg/kg DHA-EE, as compared to 100% disease incidence in OA-EE (placebo) control animals.

[2] = tested on: Collagen-Induced Arthritis (CIA); experiment: CIA-EE (Example 1): paw, knee and six-joint histopathology; type: in vivo, Male DBA/1O1aHsd mice; details: day 45, vs OA-EE placebo, FIG. 4
From the text: as §1, §2
Placebo-treated diseased animals had histopathology changes, consistent with those seen in type II collagen induced arthritis, in most joints, with scores ranging from normal to severe. Microscopic alteration included infiltration of synovium and periarticular tissue with neutrophils and mononuclear inflammatory cells (inflammation), marginal zone pannus and bone resorption and cartilage damage (proteoglycan loss, chondrocyte death and collagen matrix destruction). Four-paw, knee and joint parameters were assigned a quantitative score 0=normal, 1=minimal, 2=mild, 3=moderate, 4=marked, 5=severe and a total score was determined per animal.

| SMILES | arthritis severity score as area under the curve (AUC) ([1]; 2500 mg/kg, vs 2500 mg/kg OA-EE (placebo) control) | arthritis severity score as area under the curve (AUC) ([1]; 5000 mg/kg, vs 5000 mg/kg OA-EE (placebo) control) | incidence of disease (clinical arthritis score greater than 0) ([1]; 2500 mg/kg, FIG. 3A) [%] | knee histopathology parameters ([2]; 2500 mg/kg) | paw histopathology parameters (inflammation, pannus, cartilage damage, bone damage) ([2]; 2500 mg/kg) | knee histopathology parameters ([2]; 5000 mg/kg) | paw histopathology parameters (inflammation, pannus, cartilage damage, bone damage) ([2]; 5000 mg/kg) | incidence of disease (clinical arthritis score greater than 0) ([1]; positive control, 0.1 mg/kg) [%] |
| --- | --- | --- | --- | --- | --- | --- | --- | --- |
| CCCCC/C=C\C/C=C\C/C=C\C/C=C\C/C=C\CCC(=O)OCC [DPAn6-EE, reference compound] | did not reduce arthritis | did not reduce arthritis | 100 | did not significantly improve | did not significantly affect | did not significantly improve | did not significantly affect | – |
| C[C@@H]1C[C@H]2[C@@H]3CCC4=CC(=O)C=C[C@]4(C)[C@@]3(F)[C@@H](O)C[C@]2(C)[C@@]1(O)C(=O)CO [Dexamethasone, reference compound] | – | – | – | – | – | – | – | 60 |
